Converted amounts (≈) assume the structure as drawn.
tested on: Acinetobacter baumannii; experiment: Antimicrobial activity against Acinetobacter baumannii B9 containing carbapenemase blaOXA-23 gene assessed as growth inhibition by Etest method; format: functional

**Q.** With NCC[C@H](O)C(=O)N[C@@H]1C[C@H](N)[C@@H](O[C@H]2O[C@H](CN)[C@@H](O)[C@H](O)[C@H]2O)[C@H](O)[C@H]1O[C@H]1O[C@H](CO)[C@@H](O)[C@H](N)[C@H]1O [AMIKACIN] as the compound, how does the MIC read?
**A.** 8 µg/mL (≈ 13.7 µM)

**Q.** How did the MIC turn out when CC1(C)S[C@@H]2[C@H](NC(=O)[C@H](N)c3ccc(O)cc3)C(=O)N2[C@H]1C(=O)O [AMOXICILLIN] was run?
**A.** > 256 µg/mL

**Q.** For C[C@H]1[C@H](NC(=O)/C(=N\OC(C)(C)C(=O)O)c2csc(N)n2)C(=O)N1S(=O)(=O)O [AZTREONAM], which MIC is on record?
**A.** 32 µg/mL (≈ 73.5 µM)

**Q.** For CO/N=C(\C(=O)N[C@@H]1C(=O)N2C(C(=O)[O-])=C(C[N+]3(C)CCCC3)CS[C@H]12)c1csc(N)n1 [CEFEPIME], which MIC is on record?
**A.** > 256 µg/mL

**Q.** How did the MIC turn out when CO/N=C(\C(=O)N[C@@H]1C(=O)N2C(C(=O)O)=C(COC(C)=O)CS[C@H]12)c1csc(N)n1 [CEFOTAXIME] was run?
**A.** > 256 µg/mL

**Q.** For CO/N=C(\C(=O)N[C@@H]1C(=O)N2C(C(=O)[O-])=C(C[n+]3cccc4c3CCC4)CS[C@H]12)c1csc(N)n1 [CEFPIROME], which MIC is on record?
**A.** > 256 µg/mL

**Q.** CC(C)(O/N=C(\C(=O)N[C@@H]1C(=O)N2C(C(=O)[O-])=C(C[n+]3ccccc3)CS[C@H]12)c1csc(N)n1)C(=O)O [CEFTAZIDIME] was tested. Which MIC did it give?
**A.** > 256 µg/mL

**Q.** How did the MIC turn out when CO/N=C(\C(=O)N[C@@H]1C(=O)N2C(C(=O)O)=C(COC(N)=O)CS[C@H]12)c1ccco1 [CEFUROXIME] was run?
**A.** > 256 µg/mL

**Q.** Which MIC does the source give for CC(=O)OCC1=C(C(=O)O)N2C(=O)[C@@H](NC(=O)Cc3cccs3)[C@H]2SC1 [CEPHALOTHIN] here?
**A.** > 256 µg/mL

**Q.** How did the MIC turn out when O=C(O)c1cn(C2CC2)c2cc(N3CCNCC3)c(F)cc2c1=O [CIPROFLOXACIN] was run?
**A.** > 32 µg/mL

**Q.** With C[C@@H](O)[C@H]1C(=O)N2C(C(=O)O)=C(S[C@@H]3CN[C@H](C(=O)Nc4cccc(C(=O)O)c4)C3)[C@H](C)[C@H]12 [ERTAPENEM] as the compound, how does the MIC read?
**A.** > 32 µg/mL

**Q.** Which MIC does the source give for C[C@@H](O)[C@H]1C(=O)N2C(C(=O)O)=C(SCCNC=N)C[C@H]12 [IMIPENEM ANHYDROUS] here?
**A.** 48 µg/mL (≈ 160 µM)

**Q.** With C[C@@H](O)[C@H]1C(=O)N2C(C(=O)O)=C(S[C@@H]3CN[C@H](C(=O)N(C)C)C3)[C@H](C)[C@H]12 [MEROPENEM] as the compound, how does the MIC read?
**A.** 24 µg/mL (≈ 62.6 µM)

**Q.** How did the MIC turn out when CO[C@@]1(NC(=O)C(C(=O)O)c2ccc(O)cc2)C(=O)N2C(C(=O)O)=C(CSc3nnnn3C)CO[C@@H]21 (stereo partly specified) [MOXALACTAM] was run?
**A.** > 256 µg/mL

**Q.** Which MIC does the source give for CCn1cc(C(=O)O)c(=O)c2ccc(C)nc21 [NALIDIXIC ACID] here?
**A.** > 256 µg/mL

**Q.** For CCN[C@@H]1C[C@H](N)[C@@H](O[C@H]2OC(CN)=CC[C@H]2N)[C@H](O)[C@H]1O[C@H]1OC[C@](C)(O)[C@H](NC)[C@H]1O [NETILMICIN], which MIC is on record?
**A.** 8 µg/mL (≈ 16.8 µM)

**Q.** Which MIC does the source give for CC1COc2c(N3CCN(C)CC3)c(F)cc3c(=O)c(C(=O)O)cn1c23 (stereo unspecified) [OFLOXACIN] here?
**A.** > 32 µg/mL

**Q.** For CCn1cc(C(=O)O)c(=O)c2cc(F)c(N3CCN(C)CC3)cc21 [PEFLOXACIN], which MIC is on record?
**A.** > 256 µg/mL

**Q.** How did the MIC turn out when CCN1CCN(C(=O)N[C@@H](C(=O)N[C@@H]2C(=O)N3[C@@H]2SC(C)(C)[C@@H]3C(=O)O)c2ccccc2)C(=O)C1=O [PIPERACILLIN] was run?
**A.** > 256 µg/mL

**Q.** CC1(C)S[C@@H]2[C@H](NC(=O)[C@H](C(=O)O)c3ccsc3)C(=O)N2[C@H]1C(=O)O [TICARCILLIN] was tested. Which MIC did it give?
**A.** > 256 µg/mL

**Q.** For GENTAMICIN, which MIC is on record?
**A.** 8 µg/mL

From ChEMBL document CHEMBL1212760, “First isolation of the blaOXA-23 carbapenemase gene from an environmental Acinetobacter baumannii isolate” (2010)
